ChEMBL document CHEMBL6103589, “Synthesis and evaluation of novel ebselen derivatives as urease inhibitors for combating Helicobacter pylori infections” (Eur J Med Chem, 2025)
Calls of active or inactive are those of the source. The calls are words filed in the database; no cut-off is given here.

Assays:
Helicobacter pylori [1] = test: Protection against Helicobacter pylori ATCC 43504 infected (MOI 400:1) in human GES1 cell injury model assessed as reduction in cell apoptosis rate at 50 uM pre-treated for 2 hrs followed by bacterial infection measured after 6 hrs by Annexin/V-FITC staining based flow cytometry analysis (reference value: 56.03%); type: functional; parameters: scale not given: the % may be the effect or the level left; details: time 8 hrs
Helicobacter pylori [2] = test: In vivo protection against Helicobacter pylori ATCC 43504 infected in BALB/c mouse gastric mucosa model assessed as reduction in hyperplasia at 25 mg/kg administered once a day for 2 weeks by HE staining based analysis; type: functional, organism-based
Helicobacter pylori [3] = test: (§1) Protection against Helicobacter pylori ATCC 43504 infected (MOI 100:1) in human GES1 cell injury model assessed as necrotic cells at 25 uM pre-treated for 2 hrs followed by bacterial infection measured after 6 hrs by Annexin/V-FITC staining based flow cytometry analysis (reference value: 2.82%); type: functional; details: time 8 hrs
Helicobacter pylori [4] = test: In vivo protection against Helicobacter pylori ATCC 43504 infected in BALB/c mouse gastric mucosa model assessed as appearance of intact epithelium at high dose administered once a day for 2 weeks by HE staining based analysis; type: functional, organism-based
Helicobacter pylori [5] = test: as §1, with “late apoptotic” for “necrotic”, “4.16%)” for “2.82%)”; type: functional; details: time 8 hrs
Helicobacter pylori [6] = test: (§2) Protection against Helicobacter pylori ATCC 43504 infected (MOI 200:1) in human GES1 cell injury model assessed as viable cells at 50 uM pre-treated for 2 hrs followed by bacterial infection measured after 6 hrs by Annexin/V-FITC staining based flow cytometry analysis (reference value: 57.87%); type: functional; details: time 8 hrs
[7] = Acute toxicity in BALB/c mouse assessed as change in body weight at 1 g/Kg, po single dose administered for 7 days; type: organism-based; details: in vivo, 1000 mg/kg, 168 h, time 7 day
[8] = Acute toxicity in BALB/c mouse assessed as pathological abnormality in spleen at 1 g/Kg, po single dose administered for 7 days by HE staining based analysis; type: organism-based; details: in vivo, 1000 mg/kg, 168 h, time 7 day
Helicobacter pylori [9] = test: as §2, with “400:1)” for “200:1)”, “early apoptotic” for “viable”, “42.41 %)” for “57.87%)”; type: functional; details: time 8 hrs
Helicobacter pylori [10] = test: (§3) Protection against Helicobacter pylori ATCC 43504 infected (MOI 100:1) in human GES1 cell injury model assessed as necrotic cells at 50 uM pre-treated for 2 hrs followed by bacterial infection measured after 6 hrs by Annexin/V-FITC staining based flow cytometry analysis (reference value: 2.82%); type: functional; details: time 8 hrs
[11] = Acute toxicity in BALB/c mouse assessed as change in stool consistency at 1 g/Kg, po single dose administered for 7 days; type: organism-based; details: in vivo, 1000 mg/kg, 168 h, time 7 day
Helicobacter pylori [12] = test: as §2, with “late apoptotic” for “viable”, “6.28%)” for “57.87%)”; type: functional; details: time 8 hrs
Helicobacter pylori [13] = test: as §1, with “25:1)” for “100:1)”, “early apoptotic” for “necrotic”, “9.89%)” for “2.82%)”; type: functional; details: time 8 hrs
Helicobacter pylori [14] = test: Protection against Helicobacter pylori ATCC 43504 infected (MOI 50:1) in human GES1 cell injury model assessed as viable cells at 25 uM pre-treated for 2 hrs measured after 6 hrs by Annexin/V-FITC staining based flow cytometry analysis (reference value: 81.14%); type: functional; details: time 8 hrs
Helicobacter pylori [15] = test: Protection against Helicobacter pylori ATCC 43504 infected (MOI 50:1) in human GES1 cell injury model assessed as early apoptotic cells at 25 uM pre-treated for 2 hrs measured after 6 hrs by Annexin/V-FITC staining based flow cytometry analysis (reference value: 13.16 %); type: functional; details: time 8 hrs
GES1 [16] = test: Induction of DNA damage in human GES1 cells infected (25 to 400:1 MOI) with Helicobacter pylori ATCC 43504 assessed as decrease in gammaH2AX levels at 50 uM by SP8 laser confocal microscopic analysis; type: functional, cell-based; details: time 20.0 min
[17] = biological target: Urease subunit alpha/Urease subunit beta (Helicobacter pylori (strain ATCC 700392 / 26695) (Campylobacterpylori), UniProt P69996); test: Inhibition of Helicobacter pylori ATCC 43504 urease preincubated for 75 mins followed by urea addition and measured after 30 mins by ELISA; type: protein-complex assay
Chain of Urease subunit alpha/Urease subunit beta (P69996 whole entry): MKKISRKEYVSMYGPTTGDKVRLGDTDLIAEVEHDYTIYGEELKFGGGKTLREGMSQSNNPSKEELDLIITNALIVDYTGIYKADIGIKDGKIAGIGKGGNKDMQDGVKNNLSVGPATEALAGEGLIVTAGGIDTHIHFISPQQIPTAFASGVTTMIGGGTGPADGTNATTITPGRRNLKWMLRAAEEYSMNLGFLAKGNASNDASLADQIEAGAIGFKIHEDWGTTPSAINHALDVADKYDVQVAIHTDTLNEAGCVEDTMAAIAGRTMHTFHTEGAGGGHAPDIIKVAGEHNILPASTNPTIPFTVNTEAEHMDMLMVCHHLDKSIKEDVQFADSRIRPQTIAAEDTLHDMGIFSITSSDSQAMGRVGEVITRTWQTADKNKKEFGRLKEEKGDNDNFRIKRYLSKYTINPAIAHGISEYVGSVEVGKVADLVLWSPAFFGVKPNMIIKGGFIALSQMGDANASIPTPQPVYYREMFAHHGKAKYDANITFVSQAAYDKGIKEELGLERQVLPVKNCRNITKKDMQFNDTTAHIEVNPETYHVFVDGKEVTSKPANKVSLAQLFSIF
Chain of Urease subunit alpha/Urease subunit beta (P14916 whole entry, further chain): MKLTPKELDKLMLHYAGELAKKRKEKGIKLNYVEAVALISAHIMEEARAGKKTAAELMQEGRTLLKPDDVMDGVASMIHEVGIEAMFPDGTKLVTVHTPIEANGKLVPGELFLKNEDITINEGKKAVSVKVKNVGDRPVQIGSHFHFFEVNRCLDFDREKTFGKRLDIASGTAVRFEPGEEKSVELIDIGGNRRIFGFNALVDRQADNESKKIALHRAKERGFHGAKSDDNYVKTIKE

Helicobacter pylori [18] = test: as §1, with “400:1)” for “100:1)”, “late apoptotic” for “necrotic”, “13.62%)” for “2.82%)”; type: functional; details: time 8 hrs
Helicobacter pylori [19] = test: as §3, with “early apoptotic” for “necrotic”, “24.66 %)” for “2.82%)”; type: functional; details: time 8 hrs
GES1 [20] = test: Induction of ROS generation in human GES1 cells infected (25 to 400:1 MOI) with Helicobacter pylori ATCC 43504 assessed as increase in fluorescence intensity at 25 to 50 uM by DCFH-DA based Immunofluorescence analysis; type: functional, cell-based; details: dose 25-50 µM
Helicobacter pylori [21] = test: as §3, with “late apoptotic” for “necrotic”, “4.16%)” for “2.82%)”; type: functional; details: time 8 hrs
Helicobacter pylori [22] = test: Protection against Helicobacter pylori ATCC 43504 infected (MOI 25:1) in human GES1 cell injury model assessed as necrotic cells at 50 uM pre-treated for 2 hrs measured after 6 hrs by Annexin/V-FITC staining based flow cytometry analysis (reference value: 0.66%); type: functional; details: time 8 hrs
Helicobacter pylori [23] = test: In vivo protection against Helicobacter pylori ATCC 43504 infected in BALB/c mouse gastric mucosa model assessed as effect on bleeding at high dose administered once a day for 2 weeks by HE staining based analysis; type: functional, organism-based
GES1 [24] = test: Induction of DNA damage in human GES1 cells infected (25 to 400:1 MOI) with Helicobacter pylori ATCC 43504 assessed as decrease in gammaH2AX levels by measuring fluorescence intensity at 25 to 50 uM by SP8 laser confocal microscopic analysis; type: functional, cell-based; details: dose 25-50 µM
Helicobacter pylori [25] = test: Protection against Helicobacter pylori ATCC 43504 infected (MOI 25:1) in human GES1 cell injury model assessed as late apoptotic cells at 25 uM pre-treated for 2 hrs followed by bacterial infection measured after 6 hrs by Annexin/V-FITC staining based flow cytometry analysis (reference value: 0.31%); type: functional; details: time 8 hrs
Helicobacter pylori [26] = test: Protection against Helicobacter pylori ATCC 43504 infected (MOI 25:1) in human GES1 cell injury model assessed as viable cells at 50 uM pre-treated for 2 hrs followed by bacterial infection measured after 6 hrs by Annexin/V-FITC staining based flow cytometry analysis (reference value: 89.14%); type: functional; details: time 8 hrs

O=C(Oc1n[se]c2ccccc12)c1cccc(F)c1
Activity (Helicobacter pylori [1]): 47.7%
Activity (Helicobacter pylori [2]): Active
Activity (Helicobacter pylori [3]): 0.43%
Activity (Helicobacter pylori [4]): Active
Activity (Helicobacter pylori [5]): 0.17%
Activity (Helicobacter pylori [6]): 94.61%
Activity [7]: Non-toxic
Activity [8]: Non-toxic
Activity (Helicobacter pylori [9]): 7.61%
Activity (Helicobacter pylori [10]): 0.16%
Activity [11]: Non-toxic
Activity (Helicobacter pylori [12]): 0.21%
Activity (Helicobacter pylori [13]): 1.51%
Activity (Helicobacter pylori [14]): 95.32%
Activity (Helicobacter pylori [15]): 4.49%
Activity (GES1 [16]): Active
IC50 [17]: 140 nM
Activity (Helicobacter pylori [18]): 0.32%
Activity (Helicobacter pylori [19]): 2.79%
Activity (GES1 [20]): Active
Activity (Helicobacter pylori [21]): 0.23%
Activity (Helicobacter pylori [22]): 0.43%
Activity (Helicobacter pylori [23]): inactive
Activity (GES1 [24]): Active
Activity (Helicobacter pylori [25]): 0.02%
Activity (Helicobacter pylori [26]): 99.06%
